Test results: patent US20260263551A1, “TREATING CONDITIONS WITH HYPOGLYCEMIA ASSOCIATED WITH HYPERINSULINEMIA” (RESILIUN B.V., priority 2022, published 2026)
Where a SMILES comes first, the peptide text is derived from it.

How the values were obtained:
Na+, K+-ATPase [1] = details: rat renal tubular segments; peptides tested at 5×10^-7 mol/l; cited from earlier work
Na+, K+-ATPase [2] = details: cited from earlier work
Na+, K+-ATPase [3] = details: purified preparation of Na+,K+-ATPase; cited from earlier work
mTOR = details: piglets; cited from earlier work
[4] = in vivo; cited from earlier work
[5] = system: human pulmonary microvascular endothelial cells (Hpmec); experiment: Microvascular angiogenesis (sprouting) assay in Matrigel; type: cell-based; details: t=16, 24 and 40h (P=0.48, 0.011 and 0.032)
Description: Microvascular angiogenesis assay of human pulmonary microvascular endothelial cells grown in Matrigel as determinant of ERC-reactivity and in response to increasing concentrations of GXXP-peptides 3, 6 and 8, (VGVAPGVGVAPGVGVAPG, QVGQVELGGGPGAGSLQP and GAYPGAPGAYPGAPAPGV, taken from the exon 24 region of human elastin, from the mid-portion of human C-peptide, and from the N-terminal portion of human Galectin-3, FIGS. 4a, 4b and 4c, respectively). Data shown are total tube length measurements and total branch length measurements at t=24 h. * p<0.05; ** p<0.01; *** p<0.001. At 4 h no angiogenic activity of the various peptides was as yet observed.
As measuring insulin resistance in vitro is a cumbersome feat, the effect of three elastin fragment peptides and related GXXP-peptides on endothelial cell sprouting were assessed instead. Endothelial cells (Hpmec, n=4) were serum starved for 24 hours, trypsinised and seeded in growth factor-reduced Matrigel. […] Sprouting by means of mean total tube length and mean total branch length per field of view were quantified with ImageJ software. […]
Pictures were analyzed using the plug-in angiogenesis analyzer in ImageJ. […]

human skin fibroblast = details: cited from earlier work
[6] = system: fibroblasts and monocytes; details: cited from earlier work
[7] = single infusion, healthy adults; cited from earlier work
[8] = infants >2 years of age; cited from earlier work

Molecule: EGSLQ
- activity relative to intact C-peptide (Na+, K+-ATPase [1]): 75%
- activity relative to the intact molecule (Na+, K+-ATPase [2]; HRTCs): 57%

Molecule: CN(C)CCCn1cc(C2=C(c3c[nH]c4ccccc34)C(=O)NC2=O)c2ccccc21 [G F109203X]
- effect on C-peptide stimulation of 86Rb+ uptake (Na+, K+-ATPase [2]; 1 μM preincubation, PKC inhibitor): abolished

Molecule: ELGGGPEAG [PG-domain peptide of rat C-peptide 1]
- direct activation of isolated ATPase (Na+, K+-ATPase [3]): No measurable activation

Molecule: C[C@H](N)C(=O)N[C@@H](CCC(N)=O)C(=O)O [AQ, Alanyl-glutamine] (H-Ala-Gln-OH)
- autophagy / mTOR modulation (mTOR): autophagy-inhibition

Molecule: C[C@@H](O)[C@@H]1NC(=O)[C@H](CCCCN)NC(=O)[C@@H](Cc2c[nH]c3ccccc23)NC(=O)[C@H](Cc2ccccc2)NC(=O)[C@@H](NC(=O)[C@H](N)Cc2ccccc2)CSSC[C@@H](C(=O)N[C@H](CO)[C@@H](C)O)NC1=O [octreotide]
- half-life [4]: around 100 min

Molecule: human C-peptide: cleavage product of the proinsulin molecule (RREAEDLQVGQVELGGGPGAGSLQPLALEGSLQKR)
- stimulation of 86Rb+ uptake (Na+, K+-ATPase [2]; 5 nM, 37° C., 10 min, HRTCs): 40%

Molecule: CC(=O)N[C@H]1[C@H]([C@H](O)[C@H](O)CO)OC(C(=O)O)=C[C@@H]1O [DANA, 2,3-dehydro-2-deoxy-N-acetylneuraminic acid]
- effect on the angiogenic effects of peptide 3 [5]: significantly potentiated

Molecule: EVARQ
- activity relative to intact C-peptide (Na+, K+-ATPase [1]): 100%
- direct activation of isolated ATPase (Na+, K+-ATPase [3]): No measurable activation

Molecule: VGVAPG [Chemotactic Domain of Elastin, Bachem product number 4010536]
- fibroblast proliferation (human skin fibroblast): stimulated human skin fibroblast proliferation
- chemotactic activity [6]: chemotactic for fibroblasts and monocytes

Molecule: COc1cccc(-c2cc(=O)c3ccccc3o2)c1N [PD98059]
- effect on C-peptide-stimulated Na+,K+-ATPase activation, α1-subunit phosphorylation and translocation to BLM (Na+, K+-ATPase [2]; 20 μM, MEK1/2 inhibitor): abolished

B1: XOMA 358: antibody XOMA 358 (aka RZ358), monoclonal antibody given by infusion (antibody, chains of the INN, looked up, V domains shown)
VH: EVQLVETGGGVVQPGRSLRLSCAASGFTFSSYAMHWVRQAPGKGLEWYAVISYDGSNKYYADSVKGRFTISRDNSKNTLYLQMNSLRAEDTAVYYCARHEWGFGMDVWGQGTTVTVSS
VL: DVVMTQSPLSLSVTLGQPASISCRSSLSLVYGDENTYLNWFQQRPGQSPRRLLYKVSDRDSGVPDRFSGSGSGTDFTLKISRVEADDVGVYYCMQGTHWPYTFGQGTKLEIK
- insulin sensitivity [7]: dose-dependent reduction in insulin sensitivity
- hypoglycemia [8]: reduction of hypoglycemia
